These results are taken from patent US9096560B2, “5-heterocyclylalkyl-3-hydroxy-2-phenylcyclopent-2-enones as herbicides” (Syngenta Limited, priority 2008, dated 2015).

Holding throughout (assay type): in vivo
Test [1] has as its system Lolium perenne (LOLPE). In words: Example B pre-emergence herbicidal test, LOLPE. The conditions noted are these: rate 250 g/ha, evaluated after 13 days, 100=total damage to plant, 0=no damage to plant; for pest or weed control at 250 g/ha: Lolium perenne, 312 h. Put shortly:
(§1)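 Pre-emergence spray one day after sowing; vehicle acetone/water (50:50), 0.5% Tween 20. Percent damage (0 = no effect, 100 = plant killed) recorded 13 days later.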

Test [2] concerns Alopecurus myosuroides (ALOMY). In words: Example B pre-emergence herbicidal test, ALOMY. The settings on record: rate 250 g/ha, evaluated after 13 days, 100=total damage to plant, 0=no damage to plant; for pest or weed control at 250 g/ha: Alopecurus myosuroides, 312 h. Put shortly: as §1
Test [3] relates to Echinochloa crus-galli (ECHCG). In words: Example B pre-emergence herbicidal test, ECHCG. The settings on record: rate 250 g/ha, evaluated after 13 days, 100=total damage to plant, 0=no damage to plant; for pest or weed control at 250 g/ha: Echinochloa crus-galli, 312 h. Put shortly: as §1
Test [4] relates to Alopecurus myosuroides (ALOMY). Put plainly: Example B post-emergence herbicidal test, ALOMY. The settings on record: rate 250 g/ha, evaluated after 13 days; for pest or weed control at 250 g/ha: Alopecurus myosuroides, 312 h, scale 0-100, read-out: Post-emergence activity ALOMY (100=total damage to plant; 0=no damage to plant). Summed up: (§2)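 Plants grown 8 days in glasshouse (24/16 °C day/night, 14 h light, 65% humidity), then sprayed with aqueous solution from acetone/water (50:50) formulation with 0.5% Tween 20. Damage scored 13 days later on a 0–100 scale (100 = total damage).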

Test [5] relates to Echinochloa crus-galli (ECHCG). Put plainly: Example B post-emergence herbicidal test, ECHCG. The settings on record: rate 250 g/ha, evaluated after 13 days; for pest or weed control at 250 g/ha: Echinochloa crus-galli, 312 h, scale 0-100, read-out: Post-emergence activity ECHCG (100=total damage to plant; 0=no damage to plant). Summed up: as §2
The test system of test [6] is Avena fatua (AVEFA). In words: Example B post-emergence herbicidal test, AVEFA. The conditions noted are these: rate 250 g/ha, evaluated after 13 days; for pest or weed control at 250 g/ha: Avena fatua, 312 h, scale 0-100, read-out: Post-emergence activity AVEFA (100=total damage to plant; 0=no damage to plant). Put shortly:
as §2

In test [7] the test system is Lolium perenne (LOLPE). Put plainly: Example B post-emergence herbicidal test, LOLPE. The conditions noted are these: rate 250 g/ha, evaluated after 13 days; for pest or weed control at 250 g/ha: Lolium perenne, 312 h, scale 0-100, read-out: Post-emergence activity LOLPE (100=total damage to plant; 0=no damage to plant). Summed up:
as §2

The subject of test [8] is Avena fatua (AVEFA). Put plainly: Example B pre-emergence herbicidal test, AVEFA. The settings on record: rate 250 g/ha, evaluated after 13 days, 100=total damage to plant, 0=no damage to plant; for pest or weed control at 250 g/ha: Avena fatua, 312 h. Summed up:
as §1

SMILES strings stand for the structures.

For the compound `Cc1cc(C)c(C2C(=O)CC(CC3CCC(C)O3)C2=O)c(C)c1` (centres unmarked) [Compound T26], the pest or weed control at 250 g/ha with Lolium perenne (LOLPE) [1] is 100%; in test [2], 70%; in test [3], 100%; in test [4] it was 60%; in test [5] it was 60%; with Avena fatua (AVEFA) [6], 70%. Further, the pest or weed control at 250 g/ha turned out to be 80% with Lolium perenne (LOLPE) [7] and 60% in the test on Avena fatua (AVEFA) [8].

Regarding `Cc1cc(-c2ccc(F)c(Cl)c2)cc(C)c1C1C(=O)C/C(=C\C2CCOCC2)C1=O` (centres unmarked) [Compound T65], the pest or weed control at 250 g/ha in the test on Lolium perenne (LOLPE) [1] came out at 80%; in test [2] it was 70%; in test [3], 100%; in test [4] it was 90%; in test [5], 100%; with Avena fatua (AVEFA) [6], 100%. Besides, the pest or weed control at 250 g/ha in the test with Lolium perenne (LOLPE) [7] was 90%; with Avena fatua (AVEFA) [8], 80%.

Take `CCc1cc(C)cc(C)c1C1C(=O)C/C(=C\C2CCOC2)C1=O` (centres unmarked) [Compound T59]: the pest or weed control at 250 g/ha in the test on Lolium perenne (LOLPE) [1] is 100%; in test [2], 90%; in test [3], 100%; in test [4], 90%; in test [5] it was 90%; in the test with Avena fatua (AVEFA) [6], 100%. For the same compound, the figures for the pest or weed control at 250 g/ha in the test with Lolium perenne (LOLPE) [7] and in the test on Avena fatua (AVEFA) [8] were 100% and 90%, respectively.

Regarding `Cc1cc(C)c(C2=C(OC(=O)C(C)(C)C)CC(CC3CCCOC3)C2=O)c(C)c1` (centres unmarked) [Compound P37], the pest or weed control at 250 g/ha in the test with Lolium perenne (LOLPE) [1] came to 100%; in test [2], 100%; in test [3] it was 70%; in test [4], 90%; in test [5], 90%; with Avena fatua (AVEFA) [6], 90%. Moreover, the pest or weed control at 250 g/ha is 90% in the test with Lolium perenne (LOLPE) [7] and 70% in the test with Avena fatua (AVEFA) [8].

Turning to `Cc1cc(C)c(C2C(=O)CC(CC3CCN(C(=O)c4ccccc4)CC3)C2=O)c(C)c1` (centres unmarked) [Compound T70], the pest or weed control at 250 g/ha in the test with Lolium perenne (LOLPE) [1] was determined as 70%; in test [2], 20%; in test [3], 60%; in test [4], 70%; in test [5], 80%; in the test on Avena fatua (AVEFA) [6], 100%. For the same compound, the pest or weed control at 250 g/ha with Lolium perenne (LOLPE) [7] was determined as 80%; in the test with Avena fatua (AVEFA) [8], 70%.

`Cc1cc(C)c(C2=C(O)CC(CC3CCOCC3)C2=O)c(C)c1` (centres unmarked) [Compound P68]: the “Pre-emergence activity LOLPE (damage to plant)” value in the test on Lolium perenne (LOLPE) [1] was found to be 100. In test [2], the “Pre-emergence activity ALOMY (damage to plant)” value is 90. Besides, the “Pre-emergence activity ECHCG (damage to plant)” value in test [3] came to 100. In test [4] (scale 0-100), the “Post-Emergence Activity ALOMY (100=total damage to plant; 0=no damage to plant)” value was determined as 90. Moreover, the “Post-Emergence Activity ECHCG (100=total damage to plant; 0=no damage to plant)” value in test [5] (scale 0-100) is recorded as 100. For the same compound, the “Post-Emergence Activity AVEFA (100=total damage to plant; 0=no damage to plant)” value in the test with Avena fatua (AVEFA) [6] (scale 0-100) is recorded as 90. Also, the “Post-Emergence Activity LOLPE (100=total damage to plant; 0=no damage to plant)” value in the test with Lolium perenne (LOLPE) [7] (scale 0-100) turned out to be 100. The “Pre-emergence activity AVEFA (damage to plant)” value in the test with Avena fatua (AVEFA) [8] is 90.

Turning to `Cc1cc(C)c(C2C(=O)CC(CC3CCN(C(=O)C4CCCCC4)CC3)C2=O)c(C)c1` (centres unmarked) [Compound T89], the pest or weed control at 250 g/ha was 70% in the test on Lolium perenne (LOLPE) [1]; 50% in test [2]; 60% in test [3]; 30% in test [4]; 40% in test [5]; 20% in the test with Avena fatua (AVEFA) [6]. Moreover, the pest or weed control at 250 g/ha came out at 40% in the test with Lolium perenne (LOLPE) [7] and 10% with Avena fatua (AVEFA) [8].

Turning to `CCc1cc(C)cc(C)c1C1C(=O)CC(CCC2CCOCC2)C1=O` (centres unmarked) [Compound T58], the pest or weed control at 250 g/ha was 100% in the test with Lolium perenne (LOLPE) [1]; 90% in test [2]; 100% in test [3]; 100% in test [4]; 100% in test [5]; 90% with Avena fatua (AVEFA) [6]. Moreover, the pest or weed control at 250 g/ha in the test with Lolium perenne (LOLPE) [7] and with Avena fatua (AVEFA) [8] was 90% each time.

Turning to `CCC1CCC(CC2CC(=O)C(c3c(C)cc(C)cc3C)C2=O)O1` (centres unmarked) [Compound T44], the pest or weed control at 250 g/ha in the test with Lolium perenne (LOLPE) [1] came to 100%; in test [2] it was 90%; in test [3] it was 60%; in test [4], 60%; in test [5] it was 80%; in the test on Avena fatua (AVEFA) [6], 40%. In addition, the figures for the pest or weed control at 250 g/ha in the test with Lolium perenne (LOLPE) [7] and with Avena fatua (AVEFA) [8] were 70% and 20%, respectively.

On to `COc1ccc(C(=O)OC2=C(c3c(C)cc(C)cc3C)C(=O)CC2CC2CCOC2)cc1` (centres unmarked) [Compound P71], for which the pest or weed control at 250 g/ha in the test on Lolium perenne (LOLPE) [1] was 100%; in test [2] it was 90%; in test [3], 100%; in test [4] it was 100%; in test [5], 100%; in the test with Avena fatua (AVEFA) [6] it was 90%. The pest or weed control at 250 g/ha with Lolium perenne (LOLPE) [7] and with Avena fatua (AVEFA) [8] was 100% each time.

Consider `Cc1cc(C)c(C2C(=O)CC(CC3CCN(S(C)(=O)=O)CC3)C2=O)c(C)c1` (centres unmarked) [Compound T94], for which the pest or weed control at 250 g/ha stood at 90% in the test with Lolium perenne (LOLPE) [1]; 90% in test [2]; 80% in test [3]; 100% in test [4]; 90% in test [5]; 100% in the test on Avena fatua (AVEFA) [6]. In addition, the pest or weed control at 250 g/ha in the test with Lolium perenne (LOLPE) [7] and in the test with Avena fatua (AVEFA) [8] was 90% throughout.

Take `Cc1cc(C)c(C2C(=O)CC(CC3CCN(C(=O)OC(C)C)CC3)C2=O)c(C)c1` (centres unmarked) [Compound T107]: the pest or weed control at 250 g/ha with Lolium perenne (LOLPE) [1] amounted to 70%; in test [2], 80%; in test [3], 70%; in test [4], 70%; in test [5] it was 60%; in the test on Avena fatua (AVEFA) [6] it was 90%. Besides, the values for the pest or weed control at 250 g/ha with Lolium perenne (LOLPE) [7] and in the test on Avena fatua (AVEFA) [8] were 90% and 60%, respectively.

As to `Cc1cc(C)c(C2C(=O)CC(CC3CCN(C(=O)N4CCCCC4)CC3)C2=O)c(C)c1` (centres unmarked) [Compound T120], the pest or weed control at 250 g/ha with Lolium perenne (LOLPE) [1] was 20%; in test [2], 30%; in test [3], 30%; in test [4], 30%; in test [5], 10%; in the test on Avena fatua (AVEFA) [6], 20%. The pest or weed control at 250 g/ha came to 30% with Lolium perenne (LOLPE) [7] and 10% with Avena fatua (AVEFA) [8].

As to `CC(=O)N1CCC(CC2CC(=O)C(c3c(C)cc(C)cc3C)C2=O)CC1` (centres unmarked) [Compound T24], the pest or weed control at 250 g/ha was found to be 100% with Lolium perenne (LOLPE) [1]; 100% in test [2]; 100% in test [3]; 90% in test [4]; 100% in test [5]; 100% in the test on Avena fatua (AVEFA) [6]. The pest or weed control at 250 g/ha came out at 100% in the test on Lolium perenne (LOLPE) [7] and 90% in the test on Avena fatua (AVEFA) [8].

`CON1CCC(CC2CC(=O)C(c3c(C)cc(C)cc3C)C2=O)CC1` (centres unmarked) [Compound T23]: the pest or weed control at 250 g/ha with Lolium perenne (LOLPE) [1] came out at 100%; in test [2], 100%; in test [3], 100%; in test [4], 90%; in test [5] it was 100%; with Avena fatua (AVEFA) [6], 100%. Besides, the pest or weed control at 250 g/ha with Lolium perenne (LOLPE) [7] and in the test on Avena fatua (AVEFA) [8] was 100% each time.

Consider `CC(=O)N1CCC(/C=C2\CC(=O)C(c3c(C)cc(C)cc3C)C2=O)CC1` (centres unmarked) [Compound T15], for which the pest or weed control at 250 g/ha worked out at 100% with Lolium perenne (LOLPE) [1]; 70% in test [2]; 100% in test [3]; 100% in test [4]; 100% in test [5]; 100% in the test on Avena fatua (AVEFA) [6]. Also, the pest or weed control at 250 g/ha with Lolium perenne (LOLPE) [7] and in the test with Avena fatua (AVEFA) [8] was 100% throughout.
